Laboratory results published in US20260363244A1, “HERBICIDAL COMPOSITIONS COMPRISING URACILS” (BASF SE, priority 2022, published 2026).
Like-named read-outs stand apart in the source and are kept apart here.

Legend:
Type in all cases: in vivo
Digitaria sanguinales = assay: greenhouse post-emergence herbicidal activity, DIGSA; conditions: Digitaria, post-emergence, read-out: % activity (solo application)
Description: (§1) The following examples serve to illustrate the invention.
(§2) The culture containers used were plastic pots containing loamy sand with approximately 3.0% of humus as substrate. The seeds of the test plants were sown separately for each species.
(§3) For the post-emergence treatment, the test plants were grown to a plant height of from 3 to 15 cm, depending on the plant habit, and only then treated with the active compounds which had been suspended or emulsified in water. To this end, the test plants were either sown directly, and grown in the same containers, or they were first grown separately as seedlings and transplanted into the test containers a few days prior to treatment.
(§4) Depending on the species, the plants were kept at 10-25 °C and 20-35 °C, respectively. The test period extended over 2 to 4 weeks. During this time, the plants were tended and their response to the individual treatments was evaluated.
(§5) Evaluation was carried out using a scale from 0 to 100. 100 means no emergence of the plants, or complete destruction of at least the above-ground parts, and 0 means no damage or normal course of growth. A good herbicidal activity is given at values of at least 70, and very good herbicidal activity is given at values of at least 85.
(§6) The respective stated components A and B, and if appropriate, C were formulated as a 5% by weight strength emulsion concentrate and, with addition of the amount of solvent system, introduced into the spray liquor used for applying the active compound. In the examples, the solvent used was water.
(§7) In the examples below, using the method of S. R. Colby (1967) “Calculating synergistic and antagonistic responses of herbicide combinations”, Weeds 15, p. 22ff., the value E, which is expected if the activity of the individual active compounds is only additive, was calculated.
(§8) E=X+Y−(X·Y/100) • where • X=percent activity using active compound A at an application rate a; • Y=percent activity using active compound B at an application rate b; • E=expected activity (in %) by A+B at application rates a+b.
(§9) The plants used in the greenhouse experiments were of the following species
(§10) In this context, a.i. means active ingredient, based on 100% active ingredient.
(§11) As indicated the application was post emergent (POST) at the respective growth stage (GS) of the weed.
(§12) Assessment was at the indicated days after treatment (DAT).

Eleusine indica = assay: greenhouse post-emergence herbicidal activity, ELEIN; conditions: read-out: % activity (solo application); for activity at […]: 1.6 gai/ha
Description: as §1, §2, §3, §4, §5, §6, §7, §8, §9, §10, §11, §12

Echinocloa crus-galli = assay: greenhouse post-emergence herbicidal activity, ECHCG; conditions: Echinochloa crus-galli, post-emergence, read-out: % activity (solo application)
Description: as §1, §2, §3, §4, §5, §6, §7, §8, §9, §10, §11, §12

Brachiaria decumbens = assay: greenhouse post-emergence herbicidal activity, BRADC; conditions: Urochloa decumbens, post-emergence, 1.6 gai/ha, read-out: % activity (solo application)
Description: as §1, §2, §3, §4, §5, §6, §7, §8, §9, §10, §11, §12

Kochia scoparia = assay: greenhouse post-emergence herbicidal activity, KCHSC; conditions: Bassia scoparia, post-emergence, read-out: % activity (solo application); for activity at 0.4 g/ha: 0.4 gai/ha; for activity at 0.8 g/ha: 0.8 gai/ha
Description: as §1, §2, §3, §4, §5, §6, §7, §8, §9, §10, §11, §12

Sorghum halepense = assay: greenhouse post-emergence herbicidal activity, SORHA; conditions: Sorghum halepense, post-emergence, 480 h, GS 11-33, 20 DAT, read-out: % activity (solo application)
Description: as §1, §2, §3, §4, §5, §6, §7, §8, §9, §10, §11, §12

Amaranthus tamariscinus = assay: greenhouse post-emergence herbicidal activity, AMATA; conditions: read-out: % activity (solo application); for activity at 0.5 g/ha: 0.5 gai/ha; for activity at 0.2 g/ha: 0.2 gai/ha
Description: as §1, §2, §3, §4, §5, §6, §7, §8, §9, §10, §11, §12

Setaria faberi = assay: greenhouse post-emergence herbicidal activity, SETFA; conditions: for % activity (solo application) / activity at 0.5 g/ha: 0.5 gai/ha; for activity at […]: 0.25 gai/ha
Description: as §1, §2, §3, §4, §5, §6, §7, §8, §9, §10, §11, §12

Commenline benghalensis = assay: greenhouse post-emergence herbicidal activity, COMBE; conditions: read-out: % activity (solo application)
Description: as §1, §2, §3, §4, §5, §6, §7, §8, §9, §10, §11, §12

Setaria viridis = assay: greenhouse post-emergence herbicidal activity, SETVI; conditions: Setaria viridis, post-emergence, read-out: % activity (solo application); for activity at 0.5 g/ha: 0.5 gai/ha; for activity at 0.2 g/ha: 0.2 gai/ha; for activity at 0.4 g/ha: 0.4 gai/ha
Description: as §1, §2, §3, §4, §5, §6, §7, §8, §9, §10, §11, §12

Avena fatua = assay: greenhouse post-emergence herbicidal activity, AVEFA; conditions: read-out: % activity (solo application); for activity at 0.8 g/ha: 0.8 gai/ha; for activity at 0.5 g/ha: 0.5 gai/ha
Description: as §1, §2, §3, §4, §5, §6, §7, §8, §9, §10, §11, §12

Abutilon theophrasti = assay: greenhouse post-emergence herbicidal activity, ABUTH; conditions: read-out: % activity (solo application); for activity at 0.5 g/ha: 0.5 gai/ha; for activity at 0.4 g/ha: 0.4 gai/ha; for activity at 0.8 g/ha: 0.8 gai/ha
Description: as §1, §2, §3, §4, §5, §6, §7, §8, §9, §10, §11, §12

Lolium multiflorum = assay: greenhouse post-emergence herbicidal activity, LOLMU; conditions: Lolium multiflorum, post-emergence, read-out: % activity (solo application); for activity at […]: 1.6 gai/ha
Description: as §1, §2, §3, §4, §5, §6, §7, §8, §9, §10, §11, §12

[1] = 480 h, GS 11-33, 20 DAT, 0.2 gai/ha
[2] = 480 h, GS 12-16, 20 DAT, 0.5 gai/ha
[3] = 144 h, GS 12-16, 6 DAT, 0.25 gai/ha
[4] = 144 h, GS 12-16, 6 DAT, 0.5 gai/ha
[5] = 168 h, GS 11-33, 7 DAT, 1.6 gai/ha
[6] = 480 h, GS 11-33, 20 DAT, 1.6 gai/ha
[7] = 480 h, GS 12-16, 20 DAT, 0.25 gai/ha
[8] = Setaria faberi, post-emergence, 144 h, GS 12-16, 6 DAT, read-out: % activity (solo application)
[9] = Setaria faberi, post-emergence, 480 h, GS 12-16, 20 DAT, read-out: % activity (solo application)
[10] = 168 h, GS 11-33, 7 DAT, 0.2 gai/ha
[11] = 168 h, GS 12-16, 7 DAT, 0.25 gai/ha

CCOC(=O)COc1ccccc1Oc1nc(-n2c(=O)cc(C(F)(F)F)n(C)c2=O)c(F)cc1Cl [(I.3)]
50%: activity at […] (Brachiaria decumbens; 192 h, GS 11-33, 8 DAT)
85%: activity at 0.5 g/ha (Amaranthus tamariscinus; 480 h, GS 12-16, 20 DAT) | activity at 0.5 g/ha (Setaria viridis; 480 h, GS 12-16, 20 DAT) | activity at 0.4 g/ha (Abutilon theophrasti; 168 h, GS 11-33, 7 DAT) | activity at 0.8 g/ha (Abutilon theophrasti; 168 h, GS 11-33, 7 DAT) | activity at […] (Abutilon theophrasti; [11]) | activity at […] (Abutilon theophrasti; 504 h, GS 12-16, 21 DAT, 0.25 gai/ha)
25%: activity at 0.4 g/ha (Setaria viridis; 192 h, GS 11-33, 8 DAT) | activity at 0.8 g/ha (Avena fatua; 168 h, GS 11-33, 7 DAT) | activity at 0.5 g/ha (Avena fatua; 480 h, GS 12-16, 20 DAT)
55%: activity at 0.5 g/ha (Echinocloa crus-galli; [4]) | activity at 0.8 g/ha (Kochia scoparia; 480 h, GS 11-33, 20 DAT) | activity at […] (Setaria faberi; [8]) | activity at […] (Setaria faberi; [9]) | activity at 0.5 g/ha (Setaria faberi; [9])
95%: activity at […] (Eleusine indica; 168 h, GS 11-33, 7 DAT) | activity at […] (Commenline benghalensis; [6]) | activity at […] (Setaria viridis; 192 h, GS 11-33, 8 DAT, 1.6 gai/ha) | activity at 0.5 g/ha (Abutilon theophrasti; 144 h, GS 12-16, 6 DAT)
35%: activity at 0.5 g/ha (Digitaria sanguinales; [2]) | activity at 0.5 g/ha (Eleusine indica; [2]) | activity at […] (Setaria viridis; [3]) | activity at […] (Avena fatua; [3]) | activity at […] (Avena fatua; [11])
90%: activity at […] (Eleusine indica; 480 h, GS 11-33, 20 DAT) | activity at 0.5 g/ha (Amaranthus tamariscinus; 144 h, GS 12-16, 6 DAT) | activity at […] (Amaranthus tamariscinus; [6]) | activity at 0.5 g/ha (Commenline benghalensis; [4]) | activity at […] (Setaria viridis; [6]) | activity at […] (Abutilon theophrasti; [5]) | activity at 0.5 g/ha (Abutilon theophrasti; 168 h, GS 12-16, 7 DAT) | activity at […] (Abutilon theophrasti; [6])
80%: activity at 0.4 g/ha (Setaria faberi; Setaria faberi, post-emergence, 480 h, GS 11-33, 20 DAT, 0.4 gai/ha, read-out: % activity (solo application)) | activity at 0.2 g/ha (Abutilon theophrasti; [10]) | activity at 0.4 g/ha (Abutilon theophrasti; 480 h, GS 11-33, 20 DAT) | activity at 0.8 g/ha (Abutilon theophrasti; 480 h, GS 11-33, 20 DAT)
65%: activity at 0.5 g/ha (Setaria faberi; [8])
30%: activity at 0.4 g/ha (Digitaria sanguinales; 192 h, GS 11-33, 8 DAT, 0.4 gai/ha) | activity at 0.4 g/ha (Kochia scoparia; 480 h, GS 11-33, 20 DAT) | activity at 0.8 g/ha (Sorghum halepense; 0.8 gai/ha) | activity at […] (Sorghum halepense; 1.6 gai/ha) | activity at […] (Setaria viridis; [7]) | activity at […] (Avena fatua; [6]) | activity at […] (Lolium multiflorum; 168 h, GS 11-33, 7 DAT)
15%: activity at 0.2 g/ha (Kochia scoparia; [1]) | activity at 0.2 g/ha (Setaria faberi; Setaria faberi, post-emergence, 480 h, GS 11-33, 20 DAT, 0.2 gai/ha, read-out: % activity (solo application)) | activity at 0.8 g/ha (Avena fatua; 480 h, GS 11-33, 20 DAT)
40%: activity at […] (Echinocloa crus-galli; [3]) | activity at […] (Brachiaria decumbens; 480 h, GS 11-33, 20 DAT) | activity at […] (Kochia scoparia; [7]) | activity at 0.2 g/ha (Amaranthus tamariscinus; 480 h, GS 11-33, 20 DAT) | activity at […] (Commenline benghalensis; [3]) | activity at […] (Avena fatua; [5]) | activity at 0.5 g/ha (Avena fatua; 168 h, GS 12-16, 7 DAT)
10%: activity at 0.2 g/ha (Digitaria sanguinales; [1]) | activity at 0.2 g/ha (Sorghum halepense; 0.2 gai/ha) | activity at 0.4 g/ha (Setaria viridis; 480 h, GS 11-33, 20 DAT) | activity at 0.2 g/ha (Avena fatua; [1]) | activity at […] (Avena fatua; [7]) | activity at 0.8 g/ha (Lolium multiflorum; 480 h, GS 11-33, 20 DAT, 0.8 gai/ha) | activity at […] (Lolium multiflorum; 480 h, GS 11-33, 20 DAT)
5%: activity at 0.2 g/ha (Setaria viridis; 480 h, GS 11-33, 20 DAT) | activity at 0.2 g/ha (Lolium multiflorum; [1])
70%: activity at 0.2 g/ha (Amaranthus tamariscinus; 168 h, GS 11-33, 7 DAT) | activity at […] (Amaranthus tamariscinus; [7]) | activity at 0.5 g/ha (Setaria faberi; Setaria faberi, post-emergence, 504 h, GS 12-16, 21 DAT, read-out: % activity (solo application))
20%: activity at 0.2 g/ha (Eleusine indica; [1]) | activity at 0.4 g/ha (Sorghum halepense; 0.4 gai/ha) | activity at 0.2 g/ha (Commenline benghalensis; [10]) | activity at 0.2 g/ha (Setaria viridis; 192 h, GS 11-33, 8 DAT)
75%: activity at 0.8 g/ha (Kochia scoparia; 168 h, GS 11-33, 7 DAT) | activity at […] (Kochia scoparia; [6]) | activity at 0.5 g/ha (Setaria faberi; Setaria faberi, post-emergence, 168 h, GS 12-16, 7 DAT, read-out: % activity (solo application))
60%: activity at […] (Echinocloa crus-galli; [5]) | activity at […] (Echinocloa crus-galli; [6]) | activity at 0.4 g/ha (Kochia scoparia; 168 h, GS 11-33, 7 DAT) | % activity (solo application) (Setaria faberi; GS 12-16, 6 DAT) | % activity (solo application) (Setaria faberi; GS 12-16, 20 DAT) | activity at […] (Commenline benghalensis; [7]) | activity at 0.5 g/ha (Setaria viridis; 144 h, GS 12-16, 6 DAT)
